Test results: US5622962A, “5α-reductase inhibitors” (priority 1995, dated 1997)

Target: T1, Type II 5α-Reductase from Human Prostate (Homo sapiens, UniProt P31213)
T1 construct: The same procedure as above was used for preparations using tissue from prostate surgery; from tissue; host or cells: human prostate tissue from surgery, homogenate, 100,000×g pellet
T1 sequence (P31213 1-254): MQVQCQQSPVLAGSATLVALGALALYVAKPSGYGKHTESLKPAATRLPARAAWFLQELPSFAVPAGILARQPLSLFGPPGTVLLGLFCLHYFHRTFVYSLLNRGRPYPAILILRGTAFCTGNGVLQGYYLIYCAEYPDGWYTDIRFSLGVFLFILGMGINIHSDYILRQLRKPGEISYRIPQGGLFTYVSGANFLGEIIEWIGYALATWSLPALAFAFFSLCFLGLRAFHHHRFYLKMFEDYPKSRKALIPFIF
Assay: Human Type II 5α-reductase assay (conversion of [3H]-testosterone to 5α-reduced metabolites)
Assay type: biochemical
Conditions: pH 5.5, 0.3 μM; sodium acetate pH 5.5, 25°, 30 min; compared to control reaction mixtures; read-out: percent inhibition of Type II AR

inhibition at 0.3 µM | SMILES
18% | CN1C(=O)CC[C@]2(C)c3ccc(NC(=O)c4cccc([N+](=O)[O-])c4)cc3CC[C@@H]12 [Example 268, (+)-(4aR)-(10bR)-4,10b-dimethyl-8-(3-nitrobenzoylamino)-1,2,3,4,4a,5,6,10b-octahydrobenzo[f]quinolin-3-one]
41% | CN1C(=O)CC[C@]2(C)c3ccc(-c4ccc(C#N)cc4)cc3CC[C@@H]12 [Example 121, (+)-(4aR)-(10bR)-4-methyl-8-(4-cyanophenyl)-10b-methyl-1,2,3,4,4a,5,6,10b-octahydrobenzo[f]quinolin-3-one]
12% | CN1C(=O)CC[C@]2(C)c3ccc(-c4ccc(F)cc4)cc3CC[C@@H]12 [Example 85, (+)-(4aR)-(10bR)-4-methyl-8-(4-fluorophenyl)-10b-methyl-1,2,3,4,4a,5,6,10b-octahydrobenzo[f]quinolin-3-one]
12% | Cc1cc(C)cc(-c2ccc3c(c2)CC[C@H]2N(C)C(=O)CC[C@]32C)c1 [Example 83, (+)-(4aR)-(10bR)-4-methyl-8-(3,5-dimethylphenyl)-10b-methyl-1,2,3,4,4a,5,6,10b-octahydrobenzo[f]quinolin-3-one]
44% | CN1C(=O)CC[C@]2(C)c3ccc(-c4ccc5c(c4)CCC5O)cc3CC[C@@H]12 (single isomer, unassigned; (+)) [Example 245]
12% | COc1cccc(-c2ccc3c(c2)CC[C@H]2N(C)C(=O)CC[C@]32C)c1 [Example 48, (+)-(4aR)-(10bR)-4-methyl-8-(3-methoxyphenyl)-10b-methyl-1,2,3,4,4a,5,6,10b-octahydrobenzo[f]quinolin-3-one]
19% | C[C@]12CCC(=O)N[C@@H]1CCc1cc(C(=O)Nc3ccccc3)ccc12 [Example 291, (+)-(4aR)-(10bR)-8-phenylcarboxamido-10b-methyl-1,2,3,4,4a,5,6,10b-octahydrobenzo[f]quinoline-3-one]
3% | CN1C(=O)CC[C@]2(C)c3ccc(-c4ccc(OC(F)(F)F)cc4)cc3CC[C@@H]12 [Example 78, (+)-(4aR)-(10bR)-4-methyl-8-(4-trifluoromethoxyphenyl)-10b-methyl-1,2,3,4,4a,5,6,10b-octahydrobenzo[f]quinolin-3-one]
36% | CC(C)C(=O)c1ccc(-c2ccc3c(c2)CC[C@H]2N(C)C(=O)CC[C@]32C)cc1 [Example 122, (+)-(4aR)-(10bR)-4-methyl-8-(4-[isopropylcarbonyl]phenyl)-10b-methyl-1,2,3,4,4a,5,6,10b-octahydrobenzo[f]quinolin-3-one]
28% | CN1C(=O)CC[C@]2(C)c3ccc(-c4cccs4)cc3CC[C@@H]12 [Example 278, (4aR)-(10bR)-4,10b-dimethyl-8-(2-thiophenyl)-1,2,3,4,4a,5,6,10b-octahydrobenzo[f]quinolin-3-one]
42% | CN1C(=O)CC[C@]2(C)c3ccc(-c4ccc5cc(O)ccc5c4)cc3CC[C@@H]12 [Example 60, (+)-(4aR)-(10bR)-4-methyl-8-(2-[6-hydroxy]naphthyl)-10b-methyl-1,2,3,4,4a,5,6,10b-octahydrobenzo[f]quinolin-3-one]
34% | CN1C(=O)CC[C@]2(C)c3ccc(-c4ccc(C(F)(F)F)cc4)cc3CC[C@@H]12 [Example 79, (+)-(4aR)-(10bR)-4-methyl-8-(4-trifluoromethylphenyl)-10b-methyl-1,2,3,4,4a,5,6,10b-octahydrobenzo[f]quinolin-3-one]
37% | C[C@]12CCC(=O)N[C@@H]1CCc1cc(-c3cc(C(F)(F)F)nc4c(C(F)(F)F)cccc34)ccc12 [Example 197, (+)-(4aR)-(10bR)-8-(4-[2,8-bistrifluoromethyl]quinolinyl)-10b-methyl-1,2,3,4,4a,5,6,10b-octahydrobenzo[f]quinolin-3-one]
19% | CN1C(=O)CC[C@]2(C)c3ccc(-c4cccc(Cl)c4)cc3CC[C@@H]12 [Example 63, (+)-(4aR)-(10bR)-4-methyl-8-(3-chlorophenyl)-10b-methyl-1,2,3,4,4a,5,6,10b-octahydrobenzo[f]quinolin-3-one]
37% | CN1C(=O)CC[C@]2(C)c3ccc(/C=C/c4cnc5ccccc5c4)cc3CC[C@@H]12 [Example 282, (4aR)-(10bR)-4,10b-dimethyl-8-(2-[3-quinolinyl]ethenyl)-1,2,3,4,4a,5,6,10b-octahydrobenzo[f]quinolin-3-one]
44% | CN1C(=O)CC[C@]2(C)c3ccc(/C=C/c4cncc5ccccc45)cc3CC[C@@H]12 [Example 281, (4aR)-(10bR)-4,10b-dimethyl-8-(2-[4-isoquinolinyl]ethenyl)-1,2,3,4,4a,5,6,10b-octahydrobenzo[f]quinolin-3-one]
45% | C[C@]12CCC(=O)N[C@@H]1CCc1cc(-c3cnc4ccccc4c3)ccc12 [Example 45, (+)-(4aR)-(10bR)-8-(3-quinolinyl)-10b-methyl-1,2,3,4,4a,-5,6,10b-octahydrobenzo[f]quinolin-3-one]

inhibition at 0.3 µM | SMILES
16% | COc1ccc(-c2ccc3c(c2)CC[C@H]2N(C)C(=O)CC[C@]32C)cc1 [Example 47, (+)-(4aR)-(10bR)-4-methyl-8-(4-methoxyphenyl)-10b-methyl-1,2,3,4,4a,5,6,10b-octahydrobenzo[f]quinolin-3-one]
19% | C[C@]12C=CC(=O)N[C@@H]1CCc1cc(-c3cccc([N+](=O)[O-])c3)ccc12 [Example 141, (+)-(4aR)-(10bR)-8-(3-nitrophenyl)-10b-methyl-3,4,4a,5,6,10b-hexahydrobenzo[f]quinolin-3-one]
30% | C[C@]12CCC(=O)N[C@@H]1CCc1cc(-c3ccc([N+](=O)[O-])cn3)ccc12 [Example 199, (+)-(4aR)-(10bR)-8-(5-nitro-2-pyridinyl)-10b-methyl-1,2,3,4,4a,5,6,10b-octahydrobenzo[f]quinolin-3-one]
32% | COc1ccc(-c2ccc3c(c2)CC[C@H]2N(C)C(=O)CC[C@]32C)cc1OC [Example 42, (+)-(4 aR)-(10bR)-4-methyl-8-(3,4-dimethoxyphenyl)-10b-methyl-1,2,3,4,4a,5,6,10b-octahydrobenzo[f]quinolin-3-one]
9% | C[C@]12CCC(=O)N[C@@H]1CCc1cc(-c3cccc([N+](=O)[O-])c3)ccc12 [Example 93, (+)-(4aR)-(10bR)-8-(3-nitrophenyl)-10b-methyl-1,2,3,4,4a,5,6,10b-octahydrobenzo[f]quinolin-3-one]
10% | C[C@]12CCC(=O)N[C@@H]1CCc1cc(-c3cccc4ccccc34)ccc12 [Example 92, (+)-(4aR)-(10bR)-8-(1-naphthyl)-10b-methyl-1,2,3,4,4a,5,6,10b-octahydrobenzo[f]quinolin-3-one]
20% | C[C@]12C=CC(=O)N[C@@H]1CCc1cc(-c3cccc4ccccc34)ccc12 [Example 140, (+)-(4aR)-(10bR)-8-(1-naphthyl)-10b-methyl-3,4,4a,5,6,10b-hexahydrobenzo[f]quinolin-3-one]
40% | CSc1ccccc1-c1ccc2c(c1)CC[C@H]1N(C)C(=O)CC[C@]21C [Example 127, (+)-(4aR)-(10bR)-4-methyl-8-(2-methylthiophenyl)-10b-methyl-1,2,3,4,4a,5,6,10b-octahydrobenzo[f]quinolin-3-one]
27% | CN1C(=O)CC[C@]2(C)c3ccc(-c4cccc(NC(=O)c5ccccc5)c4)cc3CC[C@@H]12 [Example 273, (+)-(4aR)-(10bR)-4-methyl-8-(3-[benzoylamino]phenyl)-10b-methyl-1,2,3,4,4a,5,6,10b-octahydrobenzo[f]quinolin-3-one]
37% | CN1C(=O)CC[C@]2(C)c3ccc(/C=C/c4ccc5ccccc5n4)cc3CC[C@@H]12 [Example 283, (4aR)-(10bR)-4,10b-dimethyl-8-(2-[2-quinolinyl]ethenyl)-1,2,3,4,4a,5,6,10b-octahydrobenzo[f]quinolin-3-one]
22% | CN1C(=O)CC[C@]2(C)c3ccc(-c4cccnc4)cc3CC[C@@H]12 [Example 54, (+)-(4aR)-(10bR)-4-methyl-8-(3-pyridyl)-10b-methyl-1,2,3,4,4a,5,6,10b-octahydrobenzo[f]quinolin-3-one]
22% | CN1C(=O)CC[C@]2(C)c3ccc(-c4cccc(N)c4)cc3CC[C@@H]12 [Example 90, (+)-(4aR)-(10bR)-4-methyl-8-(3-aminophenyl)-10b-methyl-1,2,3,4,4a,5,6,10b-octahydrobenzo[f]quinolin-3-one]
24% | CN1C(=O)CC[C@]2(C)c3ccc(Sc4ccccc4)cc3CC[C@@H]12 [Example 116, (4aR)-(10bR)-4,10b-dimethyl-8-phenylthio-1,2,3,4, -4a,5,6,10b-octahydrobenzo[f]quinolin-3-one]
36% | CN1C(=O)CC[C@]2(C)c3ccc(-c4ccc5c(c4)OCO5)cc3CC[C@@H]12 [Example 70, (+)-(4aR)-(10bR)-4-methyl-8-(3,4-methylenedioxyphenyl)-10b-methyl-1,2,3,4,4a,5,6,10b-octahydrobenzo[f]quinolin-3-one]
1% | CN1C(=O)CC[C@]2(C)c3ccc(-c4ccc(Cl)cc4Cl)cc3CC[C@@H]12 [Example 94, (+)-(4aR)-(10bR)-4-methyl-8-(2,4-dichlorophenyl)-10b-methyl-1,2,3,4,4a,5,6,10b-octahydrobenzo[f]quinolin-3-one]
15% | CCOc1ccc(-c2ccc(-c3ccc4c(c3)CC[C@H]3N(C)C(=O)CC[C@]43C)cc2)cc1 [Example 89, (+)-(4aR)-(10bR)-4-methyl-8-(4-[4-ethoxy]biphenyl)-10b-methyl-1,2,3,4,4a,5,6,10b-octahydrobenzo[f]quinolin-3-one]
